# Target: (Homo sapiens, UniProt P43220)
# Test: h-GLP-1 activity assay (cAMP HTRF, HEK293 cells with stable expression of human GLP-1)
# Assay type: cell-based
# Conditions: relative EC50, 10 nM human GLP-1 set as 100% response, 30 min at 37° C.
# Method: Human GLP-1 agonizing activity was detected in HEK293 cells with stable expression of human GLP-1 by Cisbio cAMP Gs dynamic kit (Catalog #62AM4PEC) according to manufacturer's protocol. Briefly, cells were collected and resuspended in assay buffer containing 0.1% BSA and 0.5 mM of IBMX at concentration to 2.5×10^5 cells/mL. Two μL 5× compound solution and 8 μL cell suspension were added to each well of low-volume 384 white assay plate. After 30 min incubation at 37° C., 5 μL cAMP-d2 working solution and 5 μL anti-cAMP antibody-cryptate were added to each well, and incubate at room temperature for 1 hr. Series dilution of cAMP was used as standard. Human GLP-1 (7-37) was used as positive control and 10 nM human GLP-1 was set as 100% response. HTRF signals were read at 665 and 615 nm with EnVision plate reader and calculated cAMP concentration by interpolation to the standard curve. The EC50 value of the tested compounds was calculated by fitting the dose response curve using a 4-parameter non-linear regression routine and relative EC50 was presented in Table 29.
# Chain of (Homo sapiens, UniProt P43220) (P43220 24-463): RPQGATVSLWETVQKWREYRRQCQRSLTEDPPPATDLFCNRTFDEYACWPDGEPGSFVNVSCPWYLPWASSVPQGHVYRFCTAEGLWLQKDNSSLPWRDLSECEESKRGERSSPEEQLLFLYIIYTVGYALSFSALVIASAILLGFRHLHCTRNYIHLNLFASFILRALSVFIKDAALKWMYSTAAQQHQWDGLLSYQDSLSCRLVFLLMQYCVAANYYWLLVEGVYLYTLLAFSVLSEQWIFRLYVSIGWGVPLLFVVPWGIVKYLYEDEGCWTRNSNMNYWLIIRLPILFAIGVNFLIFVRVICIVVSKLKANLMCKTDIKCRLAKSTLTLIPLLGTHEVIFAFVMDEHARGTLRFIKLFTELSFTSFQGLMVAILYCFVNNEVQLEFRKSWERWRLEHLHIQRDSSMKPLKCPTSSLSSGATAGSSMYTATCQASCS
row,EC50 [nM],Structure (SMILES)
1,< 20,"C[C@H]1c2c(-n3ccn(-c4ccc5c(cnn5C)c4F)c3=O)c(-c3ccc(F)c(C(F)(F)F)c3)nn2CCN1C(=O)c1cc2cc([C@@H]3CCOC(C)(C)C3)ccc2n1C1(c2noc(=O)[nH]2)CC1 (single isomer, unassigned) [Compound 65]"
2,> 100,"C[C@@H]1c2c(-n3ccn(-c4ccc5c(cnn5C)c4F)c3=O)c(-c3ccc(F)c(C(F)(F)F)c3)nn2CCN1C(=O)c1cc2cc([C@@H]3CCOC(C)(C)C3)ccc2n1C1(c2noc(=O)[nH]2)CC1 (single isomer, unassigned) [Compound 66]"
3,< 20,"C[C@H]1c2c(nn(-c3ccc(F)c(Cl)c3)c2-n2ccn(-c3ccc4c(cnn4C)c3F)c2=O)CCN1C(=O)c1cc2cc([C@@H]3CCOC(C)(C)C3)ccn2c1C1(c2noc(=O)[nH]2)CC1 (single isomer, unassigned) [Compound 67]"
4,< 20,"Cc1cc(-c2nn3c(c2-n2ccn(-c4ccc5c(cnn5C)c4F)c2=O)[C@@H](C)N(C(=O)c2cc4cc([C@@H]5CCOC(C)(C)C5)ccn4c2C2(c4noc(=O)[nH]4)CC2)CC3)cc(C)c1F (single isomer, unassigned) [Compound 68]"
5,< 20,"Cc1cc(-c2nn3c(c2-n2ccn(-c4ccc5c(cnn5C)c4F)c2=O)[C@@H](C)N(C(=O)c2cn4cc([C@@H]5CCOC(C)(C)C5)ccc4c2C2(c4noc(=O)[nH]4)CC2)CC3)cc(C)c1F (single isomer, unassigned) [Compound 69]"
6,< 20,"C[C@H]1c2c(nn(-c3ccc(F)c(F)c3)c2-n2ccn(-c3ccc4c(cnn4C)c3F)c2=O)CCN1C(=O)c1cn2cc([C@@H]3CCOC(C)(C)C3)ccc2c1C1(c2noc(=O)[nH]2)CC1 (single isomer, unassigned) [Compound 70]"
7,< 20,"C[C@H]1c2c(nn(-c3ccc(F)c(C(F)(F)F)c3)c2-n2ccn(-c3ccc4c(cnn4C)c3F)c2=O)CCN1C(=O)c1cn2cc([C@@H]3CCOC(C)(C)C3)ccc2c1C1(c2noc(=O)[nH]2)CC1 (single isomer, unassigned) [Compound 71]"
8,< 20,"C[C@H]1c2c(nn(-c3cc(F)c(F)c(F)c3)c2-n2ccn(-c3ccc4c(cnn4C)c3F)c2=O)CCN1C(=O)c1cc2cc([C@@H]3CCOC(C)(C)C3)ccn2c1C1(c2noc(=O)[nH]2)CC1 (single isomer, unassigned) [Compound 72]"
9,< 20,"C[C@H]1c2c(nn(-c3ccc(F)c(C(F)(F)F)c3)c2-n2ccn(-c3ccc4c(cnn4C)c3F)c2=O)CCN1C(=O)c1cc2cc([C@@H]3CCOC(C)(C)C3)ccn2c1C1(c2noc(=O)[nH]2)CC1 (single isomer, unassigned) [Compound 74]"
10,< 20,"C[C@H]1c2c(nn(-c3cc(F)c(F)c(F)c3)c2-n2ccn(-c3ccc4c(cnn4C)c3F)c2=O)CCN1C(=O)c1cn2cc([C@@H]3CCOC(C)(C)C3)ccc2c1C1(c2noc(=O)[nH]2)CC1 (single isomer, unassigned) [Compound 75]"
11,< 20,"Cc1cc(-n2nc3c(c2-n2ccn(-c4ccc5c(cnn5C)c4F)c2=O)[C@H](C)N(C(=O)c2cc4cc([C@@H]5CCOC(C)(C)C5)ccn4c2C2(c4noc(=O)[nH]4)CC2)CC3)ccc1F (single isomer, unassigned) [Compound 77]"
12,< 20,"C[C@H]1c2c(nn(-c3ccc(F)c(F)c3)c2-n2ccn(-c3ccc4c(cnn4C)c3F)c2=O)CCN1C(=O)c1cc2cc([C@@H]3CCOC(C)(C)C3)ccn2c1C1(c2noc(=O)[nH]2)CC1 (single isomer, unassigned) [Compound 78]"
13,< 20,"Cc1cc(-n2nc3c(c2-n2ccn(-c4ccn5c(C)nnc5c4)c2=O)[C@H](C)N(C(=O)c2cn4cc([C@@H]5CCOC(C)(C)C5)ccc4c2C2(c4noc(=O)[nH]4)CC2)CC3)cc(C)c1F (single isomer, unassigned) [Compound 79]"
14,< 20,"C[C@H]1c2c(nn(-c3ccc(F)c(OC(F)(F)F)c3)c2-n2ccn(-c3ccc4c(cnn4C)c3F)c2=O)CCN1C(=O)c1cn2cc([C@@H]3CCOC(C)(C)C3)ccc2c1C1(c2noc(=O)[nH]2)CC1 (single isomer, unassigned) [Compound 80]"

# — patent US12037339B2, “Substituted imidazoles as GLP-1 receptor agonists” (Eccogene Inc., priority 2020, dated 2024)
